The experiment deals with T1, ERK5 (Homo sapiens, UniProt Q13164).
T1 construct: made in house
T1 sequence (Q13164 whole entry): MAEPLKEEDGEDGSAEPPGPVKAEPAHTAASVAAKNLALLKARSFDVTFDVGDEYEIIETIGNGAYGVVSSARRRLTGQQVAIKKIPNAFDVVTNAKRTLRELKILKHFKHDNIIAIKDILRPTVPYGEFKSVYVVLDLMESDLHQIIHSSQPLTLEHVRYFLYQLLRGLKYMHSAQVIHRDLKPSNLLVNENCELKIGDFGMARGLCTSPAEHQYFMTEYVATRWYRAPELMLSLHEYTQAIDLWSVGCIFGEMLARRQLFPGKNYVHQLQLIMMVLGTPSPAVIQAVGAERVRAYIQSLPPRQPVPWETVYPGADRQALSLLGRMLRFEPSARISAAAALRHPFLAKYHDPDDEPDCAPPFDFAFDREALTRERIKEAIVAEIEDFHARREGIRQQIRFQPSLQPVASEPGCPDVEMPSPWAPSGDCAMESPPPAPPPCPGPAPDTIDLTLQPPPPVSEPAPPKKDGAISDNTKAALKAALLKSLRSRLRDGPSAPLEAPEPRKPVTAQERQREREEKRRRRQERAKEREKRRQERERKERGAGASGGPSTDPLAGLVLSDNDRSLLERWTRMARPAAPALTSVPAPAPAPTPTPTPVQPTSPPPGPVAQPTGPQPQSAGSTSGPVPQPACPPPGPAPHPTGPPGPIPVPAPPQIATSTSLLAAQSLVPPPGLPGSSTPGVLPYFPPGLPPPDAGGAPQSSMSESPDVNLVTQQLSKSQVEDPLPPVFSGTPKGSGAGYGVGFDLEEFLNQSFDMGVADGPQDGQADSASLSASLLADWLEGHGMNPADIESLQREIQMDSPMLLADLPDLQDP
Kind of experiment: ERK5 IMAP assay (fluorescence polarisation). The class given is biochemical. The following applies: average (e.g. geometric mean) where more than one data point; read-out: ERK5 IC50. Here is the method:
The assay buffer was prepared using 0.01% Tween®-20 5× stock, supplied as part of IMAP™ FP Progressive Binding System Kit (Molecular Devices R7436) and diluted to 1× using miliQ H2O. 1 μL of a 1M DTT stock was added for every 1 mL of 1× assay buffer to give a final concentration of 1 mM DTT.
ERK5 was expressed and purified at CRT-DL by Leon Pang and Sue Young. Aliquots were stored at −80° C. The ERK5 working solution was used at a […] final dilution in assay buffer. […] For 1 plate, […] of ERK5 stock was added to 2262 μL of 1× assay buffer.
To prepare the IMAP™ binding solution for one plate 20.5 μL of IMAP™ binding reagent stock, 1476 μL of 1× binding buffer A (60%), and 984 μL of binding buffer B (40%) (IMAP™ FP Progressive screening express kit (Molecular Devices R8127) was added to 9819.5 μL of milliQ H2O.
1 μL of inhibitor (in 60:40 H2O/DMSO) or 60:40 H2O/DMSO (for controls and blanks) were dry-spotted into the relevant wells of a 384-well assay plate using the MATRIX PlateMate® Plus. 5 μL of ERK5 working solution was added to test and control wells, and 5 μL of 1× assay buffer added to blanks; 4 μL of ATP/substrate working solution was added to all wells using a Matrix multichannel pipette. The plate was sealed using DMSO resistant clear seal and incubated for 2 h at 37° C. 1 μL of the kinase reaction mixture from the first plate was dry spotted into a second 384-well assay plate using the MATRIX PlateMate® Plus. 9 μL of assay buffer was added, followed by 30 μL of IMAP™ binding solution using a multichannel pipette. The plate was incubated at RT in darkness for 2 h. The assay plate was then read on an Analyst HT plate reader (Molecular Devices) using the settings described below: […]
(In general: Fluorescence polarisation rises when a labelled molecule tumbles more slowly, as on binding a larger partner.)
As usually defined, the IC50 is the concentration needed to halve the response being measured. `O=C(Nc1ccc(CO)nc1)c1cc(C(=O)c2c(Cl)ccc(Cl)c2F)c[nH]1` [Example 120, 4-(3,6-dichloro-2-fluorobenzoyl)-N-(6-(hydroxymethyl)pyridin-3-yl)-1H-pyrrole-2-carboxamide]: the IC50 was determined as 200 nM. Take `COCCOc1ccc(Cl)c(C(=O)c2c[nH]c(C(=O)Nc3cccnc3)c2)c1F` [Example 258, 4-(6-Chloro-2-fluoro-3-(2-methoxyelhoxy)benzoyl)-N-(pyridin-3-yl)-1H-pyrrole-2-carboxamide]: the IC50 turned out to be 653 nM. Then `CCc1ccc(F)c(C(=O)c2c[nH]c(C(=O)Nc3cncnc3)c2)c1F` [Example 163, 4-(3-Ethyl-2,6-difluorobenzoyl)-N-(pyrimidin-5-yl)-1H-pyrrole-2-carboxamide], with 3460 nM; and `O=C(Nc1ccc(CO)nc1)c1cc(C(=O)c2c(F)cccc2Cl)c[nH]1` [Example 119, 4-(2-chloro-6-fluorobenzoyl)-N-(6-(hydroxymethyl)pyridin-3-yl)-1H-pyrrole-2-carboxamide], with 530 nM; and `CC(=O)OC1CCN(c2ncc(NC(=O)c3cc(C(=O)c4c(F)cccc4Cl)c[nH]3)cn2)CC1` [Example 21, 1-(5-(4-(2-Chloro-6-fluorobenzoyl)-1H-pyrrole-2-carboxamido)pyrimidin-2-yl)piperidin-4-yl acetate], with 5380 nM. Consider `O=C(Nc1cnn(Cc2cccnc2)c1)c1cc(C(=O)c2c(Cl)ccc(Cl)c2F)c[nH]1` [Example 49, 4-(3,6-Dichloro-2-fluorobenzoyl)-N-(1-(pyridin-3-ylmethyl)-1H-pyrazol-4-yl)-1H-pyrrole-2-carboxamide], for which the IC50 is 20.2 nM. On to `O=C(NC1CCN(C(=O)C(F)(F)F)CC1)c1cc(C(=O)c2c(Cl)ccc(Cl)c2F)c[nH]1` [Example 11, 4-(3,6-Dichloro-2-fluorobenzoyl)-N-(1-(2,2,2-trifluoroacetyl)piperidin-4-yl)-1H-pyrrole-2-carboxamide], for which the IC50 worked out at 521 nM. Then `O=C(Nc1cccnc1)c1cc(C(=O)c2c(Cl)ccc(OC(CO)CCl)c2F)c[nH]1` (stereo not drawn) [Example 270, 4-(6-Chloro-3-((1-chloro-3-hydroxypropan-2-yl)oxy)-2-fluorobenzoyl)-N-(pyridin-3-yl)-1H-pyrrole-2-carboxamide], with 458 nM; and `O=C(Nc1cccnc1)c1cc(C(=O)c2c(Cl)ccc(OC3CCOCC3)c2F)c[nH]1` [Example 267, 4-(6-Chloro-2-fluoro-3-((tetrahydro-2H-pyran-4-yl)oxy)benzoyl)-N-(pyridin-3-yl)-1H-pyrrole-2-carboxamide], with 1740 nM; and `COc1ccc(Cl)c(C(=O)c2c[nH]c(C(=O)Nc3cnn(Cc4ccncc4)c3)c2)c1F` [Example 67], with 16.3 nM.

Take `Cn1cc(NC(=O)c2cc(C(=O)c3c(Cl)ccc(OC4CCOC4)c3F)c[nH]2)cn1` (stereo not drawn) [Example 261, 4-(6-Chloro-2-fluoro-3-((tetrahydrofuran-3-yl)oxy)benzoyl)-N-(1-methyl-1H-pyrazol-4-yl)-1H-pyrrole-2-carboxamide]: the IC50 stood at 553 nM. On to `CCc1cccc(F)c1C(=O)c1c[nH]c(C(=O)NC2CCNCC2)c1` [Example 200, 4-(2-Ethyl-6-fluorobenzoyl)-N-(piperidin-4-yl)-1H-pyrrole-2-carboxamide], for which the IC50 was determined as 4980 nM.

As to `COCCOc1ccc(Cl)c(C(=O)c2c[nH]c(C(=O)Nc3cnn(C)c3)c2)c1F` [Example 260, 4-(6-Chloro-2-fluoro-3-(2-methoxyethoxy)benzoyl)-N-(1-methyl-1H-pyrazol-4-yl)-1H-pyrrole-2-carboxamide], the IC50 was 1190 nM. Then `O=C(Nc1ccncn1)c1cc(C(=O)c2c(F)cccc2Br)c[nH]1` [Example 133, 4-(2-Bromo-6-fluorobenzoyl)-N-(pyrimidin-4-yl)-1H-pyrrole-2-carboxamide], with 1800 nM. Then `CN1CCC(NC(=O)c2cc(C(=O)c3c(F)ccc(F)c3Cl)c[nH]2)CC1` [Example 216, 4-(2-Chloro-3,6-difluorobenzoyl)-N-(1-methylpiperidin-4-yl)-1H-pyrrole-2-carboxamide], with 636 nM.

In the case of `O=C(Nc1cnccc1N1CCCC1)c1cc(C(=O)c2c(Cl)ccc(Cl)c2F)c[nH]1` [Example 98, 4-(3,6-Dichloro-2-fluorobenzoyl)-N-(4-(pyrrolidin-1-yl)pyridin-3-yl)-1H-pyrrole-2-carboxamide], the IC50 worked out at 8710 nM. With `O=C(Nc1cccnc1)c1cc(C(=O)c2c(F)ccc(Cl)c2Cl)c[nH]1` [Example 169, 4-(2,3-Dichloro-6-fluorobenzoyl)-N-(pyridin-3-yl)-1H-pyrrole-2-carboxamide], the IC50 was found to be 265 nM.

For the compound `O=C(Nc1ccncc1)c1cc(C(=O)c2cccc(Cl)c2Cl)c[nH]1` [Example 158, 4-(2,3-Dichlorobenzoyl)-N-(pyridin-4-yl)-1H-pyrrole-2-carboxamide], the IC50 turned out to be 5470 nM. Then `CCc1ncccc1NC(=O)c1cc(C(=O)c2c(Cl)ccc(Cl)c2F)c[nH]1` [Example 82, 4-(3,6-Dichloro-2-fluorobenzoyl)-N-(2-ethylpyridin-3-yl)-1H-pyrrole-2-carboxamide], with 1050 nM; and `Cc1ccc(F)c(C(=O)c2c[nH]c(C(=O)NC3CCN(C)CC3)c2)c1` [Example 234, 4-(2-Fluoro-5-methylbenzoyl)-N-(1-methylpiperidin-4-yl)-1H-pyrrole-2-carboxamide], with 4370 nM; and `Cn1cc(NC(=O)c2cc(C(=O)c3c(Cl)ccc(O)c3F)c[nH]2)cn1` [Example 255, 4-(6-Chloro-2-fluoro-3-hydroxybenzoyl)-N-(1-methyl-1H-pyrazol-4-yl)-1H-pyrrole-2-carboxamide], with 736 nM. Then `O=C(NC1CCN(c2ncccn2)CC1)c1cc(C(=O)c2c(F)cccc2Cl)c[nH]1` [Example 10, 4-(2-Chloro-6-fluorobenzoyl)-N-(1-(pyrimidin-2-yl)piperidin-4-yl)-1H-pyrrole-2-carboxamide], with 264 nM. On to `CCOc1ncccc1NC(=O)c1cc(C(=O)c2c(Cl)ccc(Cl)c2F)c[nH]1` [Example 85, 4-(3,6-Dichloro-2-fluorobenzoyl)-N-(2-ethoxypyridin-3-yl)-1H-pyrrole-2-carboxamide], for which the IC50 was found to be 6050 nM.

Regarding `O=C(Nc1ccc[n+]([O-])c1)c1cc(C(=O)c2c(F)cccc2F)c[nH]1` [Example 128, 3-(4-(2,6-Difluorobenzoyl)-1H-pyrrole-2-carboxamido)pyridine 1-oxide], the IC50 was determined as 13800 nM. Then `O=C(Nc1cnc(N2CCOCC2)nc1)c1cc(C(=O)c2c(Cl)ccc(Cl)c2F)c[nH]1` [Example 20, 4-(3,6-Dichloro-2-fluorobenzoyl)-N-(2-morpholinopyrimidin-5-yl)-1H-pyrrole-2-carboxamide], with 1500 nM; and `O=C(Nc1cnn(C2CCOCC2)c1)c1cc(C(=O)c2c(Cl)ccc(Cl)c2F)c[nH]1` [Example 237, 4-(3,6-Dichloro-2-fluorobenzoyl)-N-(1-(tetrahydro-2H-pyran-4-yl)-1H-pyrazol-4-yl)-1H-pyrrole-2-carboxamide], with 148 nM; and `Cc1cc(NC(=O)c2cc(C(=O)c3c(F)cccc3Br)c[nH]2)nc(C)n1` [Example 143, 4-(2-Bromo-6-fluorobenzoyl)-N-(2,6-dimethylpyrimidin-4-yl)-1H-pyrrole-2-carboxamide], with 4950 nM.

Take `COc1ccc(F)c(C(=O)c2c[nH]c(C(=O)Nc3cccnc3)c2)c1Cl` [Example 73, 4-(2-chloro-6-fluoro-3-methoxybenzoyl)-N-(pyridin-3-yl)-1H-pyrrole-2-carboxamide]: the IC50 turned out to be 255 nM. Then `O=C(NC1CCNCC1)c1cc(C(=O)c2c(F)cccc2C2CC2)c[nH]1` [Example 203, 4-(2-Cyclopropyl-6-fluorobenzoyl)-N-(piperidin-4-yl)-1H-pyrrole-2-carboxamide], with 5820 nM; and `CN1CCN(c2cc(NC(=O)c3cc(C(=O)c4c(F)cccc4Cl)c[nH]3)ccn2)CC1` [Example 36, 4-(2-Chloro-6-fluorobenzoyl)-N-(2-(4-methylpiperazin-1-yl)pyridin-4-yl)-1H-pyrrole-2-carboxamide], with 137 nM. `COCCn1cc(NC(=O)c2cc(C(=O)c3c(Cl)ccc(OC)c3F)c[nH]2)cn1` [Example 63, 4-(6-Chloro-2-fluoro-3-methoxybenzoyl)-N-(1-(2-methoxyethyl)-1H-pyrazol-4-yl)-1H-pyrrole-2-carboxamide]: the half-maximal inhibitory concentration (IC50) stood at 104 nM. As for `Cc1ccc(Cl)c(C(=O)c2c[nH]c(C(=O)Nc3cccnc3)c2)c1F` [Example 178, 4-(6-Chloro-2-fluoro-3-methylbenzoyl)-N-(pyridin-3-yl)-1H-pyrrole-2-carboxamide], the IC50 came to 515 nM.

As to `O=C(Nc1cnn(C2CCOC2)c1)c1cc(C(=O)c2c(Cl)ccc(Cl)c2F)c[nH]1` (stereo not drawn) [Example 240, 4-(3,6-Dichloro-2-fluorobenzoyl)-N-(1-(tetrahydrofuran-3-yl)-1H-pyrazol-4-yl)-1H-pyrrole-2-carboxamide], the 50% inhibitory concentration (IC50) stood at 127 nM.

For the origin of these results see US10344017B2, “Pyrrolcarboxamide derivatives for the inhibition of ERK5” (CANCER RESEARCH TECHNOLOGY LIMITED, priority 2014, dated 2019).
